Test systems include SNB-78; DMS-273; KM-20L2; HOP-18; DMS-114; DLD-1; LXFL 529; XF498; RXF 631.
Holding throughout (assay): NCI-60 cell line screen, 48 h

The values that follow come from ChEMBL document CHEMBL1201862, “PubChem BioAssay data set” (2004).

SMILES strings stand for the structures.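 Cultured in 96-well plates, cells were exposed to test compound for 48 hours across five concentrations. GI50: concentration for 50% inhibition of growth.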 The source made the active and inactive calls. No stated cut-off is given here; in the data, active = GI50 up to about 1.1 µM and inactive = higher. Bounds are passed on as bounds.

`Cn1nc(-c2cccc(-c3nn(C)/c(=N\CCO)s3)n2)s/c1=N/CCO`: the GI50 in the assay on SNB-78 is 41.6 µM (inactive); in the assay on DMS-273, > 100 µM (inactive); in the assay with KM-20L2 it was > 100 µM (inactive); with HOP-18, > 100 µM (inactive); in the assay on DMS-114, > 100 µM (inactive); with DLD-1 it was > 100 µM (inactive). Also, the GI50 with LXFL 529 is > 100 µM (inactive).

For the compound `C[n+]1ccc(-c2cc[n+](C)cc2)cc1` [PARAQUAT DICHLORIDE], the GI50 was > 22.3 µM (inactive) with SNB-78; 10.5 µM (inactive) in the assay on DMS-273; 17 µM (inactive) in the assay on KM-20L2; > 100 µM (inactive) in the assay with HOP-18; 3.74 µM (inactive) in the assay with XF498; 8.75 µM (inactive) in the assay on DMS-114. For the same compound, the GI50 is > 30.3 µM (inactive) in the assay on DLD-1 and > 37.1 µM (inactive) in the assay with LXFL 529.

On to `O=C(CC(O)(c1ccccc1)c1ccc(Cl)cc1)NC(=O)c1ccccc1O` (stereo unspecified), for which the GI50 in the assay on SNB-78 is 27.1 µM (inactive); in the assay on DMS-273, 13.2 µM (inactive); in the assay on KM-20L2, 14.8 µM (inactive); in the assay with HOP-18 it was 2.39 µM (inactive); with RXF 631, 15.6 µM (inactive); with DMS-114, 6.04 µM (inactive). The GI50 with DLD-1 was 11.8 µM (inactive); in the assay on LXFL 529, 4.35 µM (inactive).

In the case of `Oc1cccc(-c2cccc(O)n2)n1`, the GI50 in the assay on SNB-78, with DMS-273, in the assay on HOP-18, in the assay with RXF 631, with DMS-114 and in the assay with DLD-1 was > 100 µM (inactive) throughout. For the same compound, the GI50 in the assay with LXFL 529 is > 100 µM (inactive).

For the compound `O=C(Cc1nc2sc3c(c2c(=O)[nH]1)CCCC3)Nc1ccccc1`, the GI50 with DMS-273, in the assay with KM-20L2, with HOP-18, with XF498, in the assay on DMS-114 and in the assay on LXFL 529 was > 100 µM (inactive) each time.

With `CC(=O)OC1(Sc2ccccc2)CC2[C@H]3COC(C)(C)O[C@H]3CC[C@@]2(C)CC1=O` (stereo partly specified), the GI50 in the assay with SNB-78 was > 100 µM (inactive); with DMS-273, 39.6 µM (inactive); in the assay on KM-20L2, 37.5 µM (inactive); with RXF 631, 14.4 µM (inactive); in the assay on XF498 it was 19.2 µM (inactive); in the assay with DMS-114, 27 µM (inactive). The values for the GI50 with DLD-1 and with LXFL 529 were 65.2 µM (inactive) and 34.2 µM (inactive), respectively.

With `CCCCCCCCOCC(O)CO` (stereo unspecified), the GI50 in the assay on SNB-78 was > 100 µM (inactive); in the assay on DMS-273 it was > 100 µM (inactive); in the assay on KM-20L2, > 100 µM (inactive); with HOP-18, > 100 µM (inactive); in the assay with RXF 631, > 100 µM (inactive); with XF498 it was 45.9 µM (inactive). In addition, the GI50 in the assay on DMS-114, in the assay on DLD-1 and in the assay with LXFL 529 was > 100 µM (inactive) in each case.

As to `COc1cc2cnc3c4cc(OC)c(OC(C)C)cc4ccc3c2cc1OC`, the GI50 in the assay with SNB-78, in the assay on DMS-273, in the assay on KM-20L2, with HOP-18, in the assay with RXF 631 and in the assay with DMS-114 was > 100 µM (inactive) each time. Further, the GI50 with DLD-1 and with LXFL 529 was > 100 µM (inactive) throughout.

As to `CN(C)CCC1(C2=CCCC2)CC/C(=C\c2ccc(Cl)cc2)C1=O` (stereo unspecified), the GI50 was 9.59 µM (inactive) in the assay on SNB-78; 10.8 µM (inactive) with DMS-273; 2.43 µM (inactive) in the assay with KM-20L2; 11.9 µM (inactive) in the assay with HOP-18; 8.69 µM (inactive) in the assay on RXF 631; 6.11 µM (inactive) in the assay with XF498. The results for the GI50 in the assay on DMS-114, with DLD-1 and with LXFL 529 were 6.27 µM (inactive), 7.29 µM (inactive) and 8.95 µM (inactive), respectively.

Regarding `NCCCCC(=O)c1cccnc1`, the GI50 in the assay on SNB-78, with DMS-273, in the assay with KM-20L2, in the assay on HOP-18, in the assay with XF498 and in the assay on DMS-114 was > 100 µM (inactive) each time. Moreover, the GI50 in the assay with DLD-1 and with LXFL 529 was > 100 µM (inactive) in each case.

As to `COC(=O)n1c(CBr)c(Br)c2ccccc21`, the GI50 was 46.2 µM (inactive) in the assay on DMS-273, > 100 µM (inactive) in the assay on KM-20L2, 36.7 µM (inactive) in the assay on DMS-114 and 41.5 µM (inactive) in the assay with DLD-1.

Take `CC12C3CC4C5CC(C(C53)[C@@H]1NCc1ccccc1)C42` (stereo partly specified): the GI50 in the assay with SNB-78 is > 100 µM (inactive); in the assay on DMS-273 it was > 100 µM (inactive); with KM-20L2 it was 23.2 µM (inactive); with HOP-18 it was > 100 µM (inactive); in the assay on RXF 631, 84.3 µM (inactive); with XF498, > 100 µM (inactive). Moreover, the GI50 in the assay on DMS-114, with DLD-1 and with LXFL 529 was > 100 µM (inactive) throughout.

For the compound `C/C(=N/NS(=O)(=O)c1ccccc1)c1cccc[n+]1[O-]`, the GI50 in the assay on SNB-78, with DMS-273, in the assay on KM-20L2, in the assay on HOP-18, with RXF 631 and with XF498 was > 100 µM (inactive) in each case. The GI50 with DMS-114, with DLD-1 and in the assay on LXFL 529 was > 100 µM (inactive) throughout.

For the compound `Cc1cc(C)c2c(c1)Nc1ccccc1P2c1ccccc1` (stereo unspecified), the GI50 with SNB-78 is 41.8 µM (inactive); in the assay on DMS-273, 21.7 µM (inactive); in the assay with KM-20L2 it was 30.6 µM (inactive); in the assay on XF498 it was 4.86 µM (inactive); in the assay on DMS-114 it was > 100 µM (inactive); in the assay with DLD-1, 23.5 µM (inactive). In addition, the GI50 in the assay with LXFL 529 is 29.2 µM (inactive).

Consider `CCCCCCCCCCC(O)C1CCC(C(O)CCC(O)C2CCC(CCCCCCC[C@H](O)CC3=C[C@@H](C)OC3=O)O2)O1` (stereo partly specified), for which the GI50 in the assay with SNB-78 was 14.9 µM (inactive); in the assay with DMS-273 it was 41.6 µM (inactive); in the assay on KM-20L2 it was > 100 µM (inactive); with HOP-18, > 100 µM (inactive); in the assay with RXF 631, > 46.2 µM (inactive); in the assay on XF498 it was 28.2 µM (inactive). For the same compound, the GI50 in the assay on DLD-1 was 54.8 µM (inactive); in the assay with LXFL 529, 14.6 µM (inactive).

In the case of `CCOC(=O)CC[C@@H](NC(=O)c1ccc(N[C@@H]2c3cc4c(cc3C(c3cc(OC)c(O)c(OC)c3)C3C(=O)OC[C@@H]32)OCO4)cc1)C(=O)OCC` (stereo partly specified), the GI50 is 0.859 µM (active) in the assay on SNB-78; 0.00566 µM (active) with DMS-273; 0.0404 µM (active) in the assay with KM-20L2; 0.249 µM (active) with HOP-18; 0.123 µM (active) in the assay with DLD-1; 7.23 µM (inactive) in the assay on LXFL 529.

Regarding `COC1=NN2C(OC)(c3ccccc3)c3c(-c4ccccc4)sc(-c4ccccc4)c3C2(c2ccccc2)S1` (stereo unspecified), the GI50 in the assay on SNB-78, with DMS-273, in the assay with RXF 631, in the assay with XF498, with DLD-1 and with LXFL 529 was > 100 µM (inactive) in each case.

For `C=CCCCn1ccc2ccccc21`, the GI50 in the assay on KM-20L2, in the assay on HOP-18, in the assay on RXF 631, in the assay with XF498, with DMS-114 and with DLD-1 was > 100 µM (inactive) in each case. For the same compound, in the assay on LXFL 529, the GI50 is > 100 µM (inactive).

As to `CCCCCCCCCCCCCCCCCC(=O)OCC(C[As](=O)(O)O)OC(=O)CCCCCCCCCCCCCCCCC` (stereo unspecified), the GI50 with SNB-78 was 20.4 µM (inactive); with DMS-273 it was 65.3 µM (inactive); with KM-20L2, > 100 µM (inactive); in the assay on HOP-18, > 100 µM (inactive); with RXF 631 it was 36.1 µM (inactive); in the assay with XF498 it was 23 µM (inactive). The GI50 with DMS-114 was 17.6 µM (inactive); in the assay on DLD-1 it was 40 µM (inactive); in the assay on LXFL 529 it was 72.9 µM (inactive).

As for `Cc1ccc(NC(=O)/C(=N/NC(=O)CC#N)C2C(=O)N(c3ccccc3)N=C2N)cc1C` (stereo unspecified), the GI50 in the assay with SNB-78, with DMS-273, in the assay with KM-20L2, in the assay with HOP-18, in the assay with XF498 and with DMS-114 was > 100 µM (inactive) throughout. The GI50 in the assay with DLD-1 and in the assay on LXFL 529 was > 100 µM (inactive) in each case.
